Data: patent publication US20060090219A1, “Methods for producing plants with improved growth under nitrogen-limited conditions” (priority 2003, published 2006)

How the values were obtained:
[1] = system: potatoes (May Queen cultivar); experiment: Yield survey of potatoes after foliar application of proline under low-nitrogen conditions; type: in vivo, potato; conditions: for Total tuber weight (per plant) / Total number of tubers (per plant): foliar spray 6 times at one-week intervals, harvest 3 months after planting, n = 6; for Total tuber weight (per plant): low-nitrogen soil (total nitrogen 0.6 g); for Total number of tubers (per plant): low-nitrogen soil; for Ratio of total number of tubers to spreader group / Ratio of total tuber weight to spreader group: same test, spreader group = 1.00
Description: The effects of foliar application of a proline solution on growth and yield were investigating using potatoes (May Queen cultivar). Potato tubers were placed in No. 7 pots containing 1.5 kg of Power Soil (Kureha Chemical). Under normal cultivation conditions, about 5 g of nitrogen fertilizer is used as base fertilizer; while in this cultivation test, cultivation was under low-nitrogen conditions.
(§1) Three foliar application groups were prepared—a spreader group (Approach B1, Kao), a urea group (spreader+0.87 mM urea), and a proline group (spreader+1.75 mM proline), and about 20 ml per plant was sprayed once a week beginning about a month after planting (immediately before flowering). The leaves were sprayed 6 times (6 weeks), and harvested 3 months after planting.
Aqueous solutions of a spreader, urea and proline were applied 6 times at one-week intervals to the leaf surfaces of potato plants 1 month after planting. These were cultivated for 3 months after planting, with 6 pots in each group and one stalk per plant. The tubers were harvested from each pot, and the tuber weight and number of tubers per pot was measured.

potato leaf tissue = conditions: 24 hours after foliar application, compared with spreader and urea groups, n=6
Description: as §1

Row | SMILES | Total tuber weight (per plant) [1] | Total tuber weight (per plant) ([1]; listed as proline) | Total number of tubers (per plant) [1] | Total number of tubers (per plant) ([1]; listed as proline) | Ratio of total number of tubers to spreader group [1] | Ratio of total tuber weight to spreader group [1] | Ratio of total tuber weight to spreader group ([1]; listed as proline) | 2-OG content in leaf tissue (potato leaf tissue) | Total tuber weight (per plant) ([1]; listed as urea) | Total number of tubers (per plant) ([1]; listed as urea)
1 | O=C(O)[C@@H]1CCCN1 [Proline, proline] | 158.4 ± 18.0 g | 158.4 g | 8.2 ± 1.0 | 8.2 | 1.00 | 1.10 | 1.1 | significantly greater |  | 
2 | NC(N)=O [Urea, urea, reference compound] | 140.1 ± 10.6 g |  | 6.8 ± 1.6 |  | 0.83 | 0.96 |  |  | 140.1 g | 6.8
